Consider two compounds from patent US11219621B2, “Methods for treating immunodeficiency disease” (X4 Pharmaceuticals, Inc., priority 2015, dated 2022).

One assay concerns the target T1, wild type CXCR4 (Homo sapiens, UniProt P61073).
T1 construct: expressed in transfected cells; host or cells: Cf2Th (canine thymus cell line lacking CXCR4)
The conditions noted are these: wild type CXCR4 in Cf2Th; read-out: EC50 for SDF-1α, calcium flux; cited from earlier work.

The next assay addresses T2, E343X CXCR4 variant (Homo sapiens, UniProt P61073).
T2 construct: expressed in transfected cells; host or cells: Cf2Th (canine thymus cell line lacking CXCR4)
The conditions noted are these: E343X variant in Cf2Th; read-out: EC50 for SDF-1α, calcium flux; cited from earlier work.

The target in a further assay is T3, R334X CXCR4 variant (Homo sapiens, UniProt P61073).
T3 construct: expressed in transfected cells; host or cells: Cf2Th (canine thymus cell line lacking CXCR4)
The conditions noted are these: R334X variant in Cf2Th; read-out: EC50 for SDF-1α, calcium flux; cited from earlier work.

Assay [1] relates to granulocyte-macrophage (CFU-GM), erythroid (BFU-E) and multipotential (CFU-GEMM) progenitor cells. Briefly: Progenitor/stem cell mobilization in mice after single subcutaneous injection. The conditions noted are these: Table 8; progenitor cells per mL of blood; 5 mg/kg s.c.; @ - 60″ (1 h). The format is in vivo, C3H/HeJ mice.
The test system is the same in assay [2]. The assay is described as above. The format is in vivo, C3H/HeJ mice. The following applies: 5 mg/kg s.c. On the procedure: All experiments were performed in […] mice. […] The progenitors were stimulated to form colonies in vitro with the combination of 1 U/mL rhu EPO, 50 ng/mL rmu SLF, 5% vol/vol pokeweed mitogen mouse spleen cell conditioned medium (PWMSCM), and 0.1 mM hemin. Plates were scored 7 days after incubation at 37° C., 5% CO2, lowered […] and in a humidified chamber.
In the first experiment (data shown in Table 6), mice received a dose of 5 mg/kg- and the number of progenitors in the circulating blood was measured at various time points (0.25, 0.5, 1, 2, 6 and 24 hours).

Where [3] appears, read: Table 8, @ - 60″ (1 h), vs control.
Setting [4] is: Table 8, progenitor cells per mL of blood, @ - 60″ (1 h).
[5] abbreviates: comparison, AMD3100 at 1 hour, X4P-001 peak over 0.25-2 hours.

T1 sequence (P61073 whole entry): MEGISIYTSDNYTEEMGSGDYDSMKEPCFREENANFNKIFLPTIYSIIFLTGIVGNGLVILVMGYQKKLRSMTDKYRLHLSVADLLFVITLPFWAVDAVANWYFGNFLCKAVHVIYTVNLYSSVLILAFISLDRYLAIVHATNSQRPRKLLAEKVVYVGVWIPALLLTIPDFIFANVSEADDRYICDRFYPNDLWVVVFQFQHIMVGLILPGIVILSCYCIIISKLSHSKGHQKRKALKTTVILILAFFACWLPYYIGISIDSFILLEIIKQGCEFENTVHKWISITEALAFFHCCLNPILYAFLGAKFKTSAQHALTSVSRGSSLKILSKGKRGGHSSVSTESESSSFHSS

As for SDF-1α, the EC50 on wild type CXCR4 was 13.6 nM; at E343X CXCR4 variant it was 15.3 nM; at R334X CXCR4 variant, 11.3 nM.

On to `c1cc(CN2CCCNCCNCCCNCC2)ccc1CN1CCCNCCNCCCNCC1` [AMD3100, plerixafor, reference compound], for which the “BFU (BFU-E), Mean” value in assay [1] is 207.7. Further, in assay [2] (setting [3]), the “BFU (BFU-E), Fold Chg” value is 3.12 fold; the “GEMM (CFU-GEMM), Fold Chg” value was determined as 4.35 fold; the “GM (CFU-GM), Fold Chg” value turned out to be 9.11 fold; the “Nucleated Cellularity PBL-LD, Fold Chg” value is reported as 1.62 fold. Further, in assay [2] (setting [4]), the “GEMM (CFU-GEMM), Mean” value was 138.5 and the “GM (CFU-GM), Mean” value was found to be 1950.3. Besides, the “Nucleated Cellularity PBL-LD, Mean” value in assay [2] (Table 8 comparison, @ - 60″ (1 h)) came to 1.008e+07 mL⁻¹. In assay [2] (setting [5]), the “Maximum fold-increase in BFU-E” value is listed as 3.12 fold, the “Maximum fold-increase in CFU-GEMM” value is recorded as 4.35 fold and the “Maximum fold-increase in CFU-GM” value was 9.11 fold.
